In patent US20230365627A1, “MACROCYCLIC PEPTIDE BORONATE IMMUNOMODULATORS” (Bristol-Myers Squibb Company, priority 2020, published 2023):
*1 amine or outer side, *2 acyl side, *3 side chain or, on linkers, in order; H or OH if unused. Where a SMILES comes first, the peptide text is derived from it. Bridges are numbered along the chain shown (N, C = ends). [ ]: non-standard residue; d: D form. X16 = O=C([C@H](CN(Cc1cccc(B(O)O[*:3])c1)Cc1cccc2ccc3ccccc3c12)N[*:1])[*:2]; Trp(1-CH2CO) = O=C([C@H](Cc1cn(CC(=O)[*:3])c2ccccc12)N[*:1])[*:2]; X7 = O=C([C@H](CNCc1cc(B(O)O[*:3])ccc1OCc1ccccc1)N[*:1])[*:2]; X22 = O=C([C@H](CNCc1c(B(O)O[*:3])ccc(Cl)c1F)N[*:1])[*:2]; X28 = O=C([C@H](CNCc1cc(F)c(F)cc1B(O)O[*:3])N[*:1])[*:2]; Trp(1-CH2COOH) = N[C@@H](Cc1cn(CC(=O)O)c2ccccc12)C(=O)O; X19 = O=C([C@H](CNCc1cccc(B(O)O[*:3])c1F)N[*:1])[*:2]; X8 = O=C([C@H](CNCc1ccc(B(O)O[*:3])cc1Cl)N[*:1])[*:2]; X2 = O=C([C@H](CNCc1ccc(B(O)O[*:3])cn1)N[*:1])[*:2]; X6 = O=C([C@H](CNCc1cccc(B(O)O[*:3])c1)N[*:1])[*:2]; X1 = Cc1cc(CNC[C@H](N[*:1])C(=O)[*:2])cc(C)c1B(O)O; X10 = COc1ccc(CNC[C@H](N[*:1])C(=O)[*:2])cc1B(O)O; X20 = O=C([C@H](CCNCc1cccc(B(O)O)c1F)N[*:1])[*:2]; X9 = O=C([C@H](CCNCc1ccc(B(O)O)cc1Cl)N[*:1])[*:2]; X17 = O=C([C@H](CCNCc1cccc(B(O)O)c1)N[*:1])[*:2]; Hyp = O=C(O)[C@@H]1C[C@@H](O)CN1; NMeNle = CCCC[C@H](NC)C(=O)O; NMeA = CN[C@@H](C)C(=O)O; Dab = NCC[C@H](N)C(=O)O

The compounds below were run against PD-1/PD-L1 (Homo sapiens (Human), UniProt Q9NZQ7) (assay: PD-1/PD-L1 Homogenous Time-Resolved Fluorescence (HTRF) binding assay). Details: PD-L1-His 10 nM, PD-1-Ig 20 nM; read-out: HTRF IC50.
Description: Methods for Testing the Ability of Macrocyclic Peptides to Compete for the Binding of PD-1 to PD-L1 Using Homogenous Time-Resolved Fluorescence (HTRF) Binding Assays
The ability of the compounds of formula (I) to bind to PD-L1 was investigated using a PD-1/PD-L1 Homogenous Time-Resolved Fluorescence (HTRF) binding assay.
Homogenous Time-Resolved Fluorescence (HTRF) Binding Assay
The interaction of PD-1 and PD-L1 can be assessed using soluble, purified preparations of the extracellular domains of the two proteins. The PD-1 and PD-L1 protein extracellular domains were expressed as fusion proteins with detection tags, for PD-1, the tag was the Fc portion of Immunoglobulin (PD-1-Ig) and for PD-L1 it was the 6 histidine motif (PD-L1-His). All binding studies were performed in an HTRF assay buffer consisting of dPBS supplemented with 0.1% […] bovine serum albumin and 0.05% (v/v) Tween-20. For the h/PD-L1-His binding assay, inhibitors were pre-incubated with PD-L1-His (10 nM final) for 15 m in 4 μl of assay buffer, followed by addition of PD-1-Ig (20 nM final) in 1 μl of assay buffer and further incubation for 15 m. HTRF detection was achieved using europium cryptate-labeled anti-Ig (1 nM final) and allophycocyanin (APC) labeled anti-His (20 nM final). Antibodies were diluted in HTRF detection buffer and 5 μl was dispensed on top of the binding reaction. The reaction mixture was allowed to equilibrate for 30 minutes and the resulting signal (665 nm/620 nm ratio) was obtained using an EnVision fluorometer. Additional binding assays were established between the human proteins PD-1-Ig/PD-L2-His (20 & 5 nM, respectively) and CD80-His/PD-L1-Ig (100 & 10 nM, respectively).
Recombinant Proteins: Human PD-1 (25-167) with a C-terminal human Fc domain of immunoglobulin G (Ig) epitope tag [hPD-1 (25-167)-3S-IG] and human PD-L1 (18-239) with a C-terminal His epitope tag [hPD-L1(18-239)-TVMV-His] were expressed in HEK293T cells and purified sequentially by ProteinA affinity chromatography and size exclusion chromatography. Human PD-L2-His and CD80-His was obtained through commercial sources.
Table 1 lists the IC50 values for representative examples of this disclosure measured in the PD-1/PD-L1 Homogenous Time-Resolved Fluorescence (HTRF) binding assay.

PD-1/PD-L1, sequence (Q9NZQ7 18-239): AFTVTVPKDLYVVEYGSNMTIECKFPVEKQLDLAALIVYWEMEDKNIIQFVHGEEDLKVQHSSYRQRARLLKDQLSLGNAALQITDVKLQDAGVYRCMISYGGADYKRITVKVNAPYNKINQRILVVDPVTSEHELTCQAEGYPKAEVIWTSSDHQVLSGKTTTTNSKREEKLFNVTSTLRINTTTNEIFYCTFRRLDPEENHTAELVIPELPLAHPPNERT

Row | Structure (SMILES) | IC50 [nM]
1 | CCCC[C@H]1C(=O)N(C)[C@@H](CCCC)C(=O)N[C@@H](CC(C)C)C(=O)N[C@H](C(=O)NCC(N)=O)CSCC(=O)N[C@@H](Cc2ccc(O)cc2)C(=O)N(C)[C@@H](C)C(=O)N[C@@H](CC(N)=O)C(=O)N2CCC[C@H]2C(=O)N[C@H]2CNCc3cc(F)c(F)cc3B(O)OC(=O)Cn3cc(c4ccccc43)C[C@H](NC(=O)[C@H](CCN)NC(=O)[C@H](Cc3c[nH]c4ccccc34)NC(=O)[C@@H]3C[C@@H](O)CN3C(=O)[C@H](CC(C)C)NC2=O)C(=O)N1C [Example 1024] ({CH2CO}-Y[NMeA]NP[X28]L[Hyp]W[Dab][Trp(1-CH2CO)][NMeNle][NMeNle]LCG-NH2; ester 5-10; thioether N-14) | 9.4
2 | CCCC[C@H]1C(=O)N(C)[C@@H](CCCC)C(=O)N[C@@H](CC(C)C)C(=O)N[C@H](C(=O)NCC(N)=O)CSCC(=O)N[C@@H](Cc2ccc(O)cc2)C(=O)N(C)[C@@H](C)C(=O)N[C@@H](CC(N)=O)C(=O)N2CCC[C@H]2C(=O)N[C@H]2CN(Cc3cccc4ccc5ccccc5c34)Cc3cccc(c3)B(O)OC(=O)Cn3cc(c4ccccc43)C[C@H](NC(=O)[C@H](CCNCc3cccc(B(O)O)c3)NC(=O)[C@H](Cc3c[nH]c4ccccc34)NC(=O)[C@@H]3C[C@@H](O)CN3C(=O)[C@H](CC(C)C)NC2=O)C(=O)N1C [Example 1042] ({CH2CO}-Y[NMeA]NP[X16]L[Hyp]W[X17][Trp(1-CH2CO)][NMeNle][NMeNle]LCG-NH2; ester 5-10; thioether N-14) | 94
3 | CCCC[C@H]1C(=O)N(C)[C@@H](CCCC)C(=O)N[C@@H](CC(C)C)C(=O)N[C@H](C(=O)NCC(N)=O)CSCC(=O)N[C@@H](Cc2ccc(O)cc2)C(=O)N(C)[C@@H](C)C(=O)N[C@@H](CC(N)=O)C(=O)N2CCC[C@H]2C(=O)N[C@H]2CNCc3cccc(c3)B(O)OC(=O)Cn3cc(c4ccccc43)C[C@H](NC(=O)[C@H](CCN)NC(=O)[C@H](Cc3c[nH]c4ccccc34)NC(=O)[C@@H]3C[C@@H](O)CN3C(=O)[C@H](CC(C)C)NC2=O)C(=O)N1C [Example 1001] ({CH2CO}-Y[NMeA]NP[X6]L[Hyp]W[Dab][Trp(1-CH2CO)][NMeNle][NMeNle]LCG-NH2; ester 5-10; thioether N-14) | 3.8
4 | CCCC[C@H]1C(=O)N(C)[C@@H](CCCC)C(=O)N[C@@H](CC(C)C)C(=O)N[C@H](C(=O)NCC(N)=O)CSCC(=O)N[C@H]2Cc3ccc(cc3)OB(O)c3cc(F)c(F)cc3CNCC[C@@H]3NC(=O)[C@H](Cc4c[nH]c5ccccc45)NC(=O)[C@@H]4C[C@@H](O)CN4C(=O)[C@H](CC(C)C)NC(=O)[C@H](CNCc4cc(F)c(F)cc4B(O)OC(=O)Cn4cc(c5ccccc54)C[C@H](NC3=O)C(=O)N1C)NC(=O)[C@@H]1CCCN1C(=O)[C@H](CC(N)=O)NC(=O)[C@H](C)N(C)C2=O [Example 1031] | 10
5 | CCCC[C@H]1C(=O)N(C)[C@@H](CCCC)C(=O)N[C@@H](CC(C)C)C(=O)N[C@H](C(=O)NCC(N)=O)CSCC(=O)N[C@@H](Cc2ccc(O)cc2)C(=O)N(C)[C@@H](C)C(=O)N[C@@H](CC(N)=O)C(=O)N2CCC[C@H]2C(=O)N[C@@H](CNCc2cc(C)c(B(O)O)c(C)c2)C(=O)N[C@@H](CC(C)C)C(=O)N2C[C@H](O)C[C@H]2C(=O)N[C@@H](Cc2c[nH]c3ccccc23)C(=O)N[C@@H](CCN)C(=O)N[C@@H](Cc2cn(CC(=O)O)c3ccccc23)C(=O)N1C [Example 1027] ({CH2CO}-Y[NMeA]NP[X1]L[Hyp]W[Dab][Trp(1-CH2COOH)][NMeNle][NMeNle]LCG-NH2; thioether N-14) | 3.8
6 | CCCC[C@H]1C(=O)N(C)[C@@H](CCCC)C(=O)N[C@@H](CC(C)C)C(=O)N[C@H](C(=O)NCC(N)=O)CSCC(=O)N[C@@H](Cc2ccc(O)cc2)C(=O)N(C)[C@@H](C)C(=O)N[C@@H](CC(N)=O)C(=O)N2CCC[C@H]2C(=O)N[C@H]2CNCc3ccc(cn3)B(O)OC(=O)Cn3cc(c4ccccc43)C[C@H](NC(=O)[C@H](CCN)NC(=O)[C@H](Cc3c[nH]c4ccccc34)NC(=O)[C@@H]3C[C@@H](O)CN3C(=O)[C@H](CC(C)C)NC2=O)C(=O)N1C [Example 1010] ({CH2CO}-Y[NMeA]NP[X2]L[Hyp]W[Dab][Trp(1-CH2CO)][NMeNle][NMeNle]LCG-NH2; ester 5-10; thioether N-14) | 8.6
7 | CCCC[C@H]1C(=O)N(C)[C@@H](CCCC)C(=O)N[C@@H](CC(C)C)C(=O)N[C@H](C(=O)NCC(N)=O)CSCC(=O)N[C@@H](Cc2ccc(O)cc2)C(=O)N(C)[C@@H](C)C(=O)N[C@@H](CC(N)=O)C(=O)N2CCC[C@H]2C(=O)N[C@H]2CNCc3ccc(cc3)B3OB(O3)c3ccc(cc3)CNCC[C@H](NC(=O)[C@H](Cc3c[nH]c4ccccc34)NC(=O)[C@@H]3C[C@@H](O)CN3C(=O)[C@H](CC(C)C)NC2=O)C(=O)N[C@@H](Cc2cn(CC(=O)O)c3ccccc23)C(=O)N1C [Example 1004] | 6.3
8 | CCCC[C@H]1C(=O)N(C)[C@@H](CCCC)C(=O)N[C@@H](CC(C)C)C(=O)N[C@H](C(=O)NCC(N)=O)CSCC(=O)N[C@@H](Cc2ccc(O)cc2)C(=O)N(C)[C@@H](C)C(=O)N[C@@H](CC(N)=O)C(=O)N2CCC[C@H]2C(=O)N[C@@H](CNCc2ccc(OC)c(B(O)O)c2)C(=O)N[C@@H](CC(C)C)C(=O)N2C[C@H](O)C[C@H]2C(=O)N[C@@H](Cc2c[nH]c3ccccc23)C(=O)N[C@@H](CCN)C(=O)N[C@@H](Cc2cn(CC(=O)O)c3ccccc23)C(=O)N1C [Example 1023] ({CH2CO}-Y[NMeA]NP[X10]L[Hyp]W[Dab][Trp(1-CH2COOH)][NMeNle][NMeNle]LCG-NH2; thioether N-14) | 9.7
9 | CCCC[C@H]1C(=O)N(C)[C@@H](CCCC)C(=O)N[C@@H](CC(C)C)C(=O)N[C@H](C(=O)NCC(N)=O)CSCC(=O)N[C@@H](Cc2ccc(O)cc2)C(=O)N(C)[C@@H](C)C(=O)N[C@@H](CC(N)=O)C(=O)N2CCC[C@H]2C(=O)N[C@H]2CNCc3ccc(cc3Cl)B(O)OC(=O)Cn3cc(c4ccccc43)C[C@H](NC(=O)[C@H](CCNCc3ccc(B(O)O)cc3Cl)NC(=O)[C@H](Cc3c[nH]c4ccccc34)NC(=O)[C@@H]3C[C@@H](O)CN3C(=O)[C@H](CC(C)C)NC2=O)C(=O)N1C [Example 1033] ({CH2CO}-Y[NMeA]NP[X8]L[Hyp]W[X9][Trp(1-CH2CO)][NMeNle][NMeNle]LCG-NH2; ester 5-10; thioether N-14) | 9
10 | CCCC[C@H]1C(=O)N(C)[C@@H](CCCC)C(=O)N[C@@H](CC(C)C)C(=O)N[C@H](C(=O)NCC(N)=O)CSCC(=O)N[C@@H](Cc2ccc(O)cc2)C(=O)N(C)[C@@H](C)C(=O)N[C@@H](CC(N)=O)C(=O)N2CCC[C@H]2C(=O)N[C@H]2CNCc3cccc(c3F)B(O)OC(=O)Cn3cc(c4ccccc43)C[C@H](NC(=O)[C@H](CCNCc3cccc(B(O)O)c3F)NC(=O)[C@H](Cc3c[nH]c4ccccc34)NC(=O)[C@@H]3C[C@@H](O)CN3C(=O)[C@H](CC(C)C)NC2=O)C(=O)N1C [Example 1022] ({CH2CO}-Y[NMeA]NP[X19]L[Hyp]W[X20][Trp(1-CH2CO)][NMeNle][NMeNle]LCG-NH2; ester 5-10; thioether N-14) | 5
11 | CCCC[C@H]1C(=O)N(C)[C@@H](CCCC)C(=O)N[C@@H](CC(C)C)C(=O)N[C@H](C(=O)NCC(N)=O)CSCC(=O)N[C@@H](Cc2ccc(O)cc2)C(=O)N(C)[C@@H](C)C(=O)N[C@@H](CC(N)=O)C(=O)N2CCC[C@H]2C(=O)N[C@H]2CNCc3c(ccc(Cl)c3F)B(O)OC(=O)Cn3cc(c4ccccc43)C[C@H](NC(=O)[C@H](CCN)NC(=O)[C@H](Cc3c[nH]c4ccccc34)NC(=O)[C@@H]3C[C@@H](O)CN3C(=O)[C@H](CC(C)C)NC2=O)C(=O)N1C [Example 1017] ({CH2CO}-Y[NMeA]NP[X22]L[Hyp]W[Dab][Trp(1-CH2CO)][NMeNle][NMeNle]LCG-NH2; ester 5-10; thioether N-14) | 7.1
12 | CCCC[C@H]1C(=O)N(C)[C@@H](CCCC)C(=O)N[C@@H](CC(C)C)C(=O)N[C@H](C(=O)NCC(N)=O)CSCC(=O)N[C@@H](Cc2ccc(O)cc2)C(=O)N(C)[C@@H](C)C(=O)N[C@@H](CC(N)=O)C(=O)N2CCC[C@H]2C(=O)N[C@H]2CNCc3cc(ccc3OCc3ccccc3)B(O)OC(=O)Cn3cc(c4ccccc43)C[C@H](NC(=O)[C@H](CCN)NC(=O)[C@H](Cc3c[nH]c4ccccc34)NC(=O)[C@@H]3C[C@@H](O)CN3C(=O)[C@H](CC(C)C)NC2=O)C(=O)N1C [Example 1019] ({CH2CO}-Y[NMeA]NP[X7]L[Hyp]W[Dab][Trp(1-CH2CO)][NMeNle][NMeNle]LCG-NH2; ester 5-10; thioether N-14) | 4.8
